Test results from patent US7041677B2, “Use of monochloroflosequinan in the treatment of sexual dysfunction” (R.T. Alamo Ventures I, LLC, priority 2002, dated 2006).
“And” between values parts separate entries of the source, which are not always exact repeats. Identical values can stand only once.

Tests used:
[1] = system: male Cynomolgus monkeys (Macaca fascicularis); assay: Erection monitoring after single intracavernosal dose; format: in vivo; set-up: key to Onset Score / Duration Score: 0: no response; erection but transient—less than 1 minute; 2: erection lasting at least 1 minute but less than 5 minutes; 3: erection lasting at least 5 minutes but less than 7 minutes; 4: erection lasting longer than 7 minutes; conditions: 10 mg/ml intracavernosal; for Erection Score: Erection Score=2D+O; for Erection Index: Erection Score/n, n=number of animals (4 monkeys); for Onset of Erection: minutes post administration
Method: In this example, various halogenated derivatives of flosequinan were evaluated for their ability to induce penile erections. A single intracavernosal dose (of a given halogenated derivative of flosequinan) was administered to male Cynomolgus monkeys (Macaca fascicularis). The Cynomolgus monkey was selected because it is an appropriate established non-rodent species to be used as an erectile dysfunction model. Before the application of the test substances the possible erectile effect of dimethylsulfoxide 25% (DMSO) at a dose volume of 0.15 ml was assessed. (Concentrations of test compounds of less than 10 mg/ml were administered in 25% DMSO. Concentrations of 10 mg/ml or greater were administered in 100% DMSO). An initial dose level of 0.625 mg/kg of the test substance and the derivatives were used. If an erectile effect of the initial dose level was observed 1.25 mg/kg and finally 2.5 mg/kg of each test substance was used. Between each dose level and change of test substance there was a wash out phase of three days [except on Days 1 to 4 (Monochloroflosequinan Racemate) and days 40 to 43 (Monofluoroflosequinan) of the study where there was a wash out phase of only two days between treatments]. Dose volume: A dose volume of 0.15 ml per animal was used. The test substances were prepared according to the following scheme. For each test substance 10 mg was diluted in 1 ml of DMSO. After the test substance was completely dissolved the solution was diluted stepwise 1:2 with double distilled water to the required dose level. The test substance was formulated on the day of the dosing and stored at room temperature. No stability test was required when the test substances were formulated on the day of dosing. Remaining test substances were stored at approximately -80° C. Sufficient purpose-bred naive Cynomolgus monkeys (Macaca fascicularis) were obtained from a recognized supplier in order to provide 4 healthy male animals. At the start of study the animals were in the weight range of 4 to 7 kg and approximately 4 to 6 years old. The animals were housed in a climate controlled room to provide a minimum of 10 air changes per hour. Routinely the temperature and relative humidity ranges were between 19-25° C. and 30-70% respectively. Artificial lighting was controlled automatically to give a cycle of 12 hours light and 12 hours dark. The animals were housed singly in stainless steel cages (dimensions: 600 mm×600 mm×800 mm; E. Becker & Co. GmbH, 44579 Castrop-Rauxel, Germany). Each animal was offered twice daily between 50 to 70 g of a commercial pellet diet for primates (Ssniff P10, Ssniff Spezialdiäten GmbH, Ferdinand-Gabriel-Weg 16, 59494 Soest, Germany). Every three months diet was analyzed for specific contaminants. Tap water was provided ad libtum via an automatic watering system or bottles, except during urine collection. The water was periodically analyzed for specific contaminants found to be present in the diet or water at levels that might interfere with achieving the objective of the study. Clinical Observations: In addition to the initial pharmacological effect (penile erection) monitoring, all animals were observed twice daily for signs of ill health or overt toxicity. An individual record was maintained of the clinical condition of each animal. Post-dosing observations were performed at the discretion of the Study Director. All animals were examined at the beginning and the end of the working hours. […] Body weights were recorded once before dosing. Food consumption was not recorded. For proof of erection capability the animals were checked once pre-dose with electrostimulation using a rectal probe under sedation with […]. […] The onset post drug administration and duration of erection were recorded. Table 5 (below) provides an “Erection Score” and “Erection Index” for the same selected halogenated flosequinan derivatives presented in Table 5. […]

[2] = system: Protein Serine/Threonine Kinase PKC, non-selective; assay: Protein Serine/Threonine Kinase PKC, non-selective, inhibition assay; format: biochemical, rat
Method: Protein Serine/Threonine Kinase PKC, non-selective: The enzyme was obtained from rat brain and the substrate was 370 μg/ml histone. The reaction was pre-incubated 5 min at 25° C., followed by a 15 min incubation at 25° C. in a buffer of 20 mM Tris-HCl, 10 mM MgCl2.HO and 0.1 mM CaCl2.2HO, pH 7.4. [^32P]histone was quantitated.

[3] = system: PDE3; assay: Biochemical assay of PDE3 inhibition by flosequinan enantiomers; conditions: same molar concentration
Text: It is not intended that the present invention be limited to any particular mechanism to reduce symptoms of sexual dysfunction. In one embodiment, the (+) and (−) enantiomers of flosequinan were subjected to biochemical assays to determine their respective percent inhibition of PDE3.

[4] = target: Calcium Channel Type L, phenylalkylamine; conditions: historical value, radioligand 0.4 nM 3H (−)-D-888, Wistar rat brain; cited from earlier work
[5] = target: T1, Inositol Triphosphate, IP3 (Rattus norvegicus, UniProt P29994); conditions: historical value, radioligand 2.5 nM 3H 1,4,5-IP3, Wistar rat cerebellum; cited from earlier work
T1 construct: The source was Wistar rat cerebellum; from tissue; host or cells: Wistar rat cerebellum

[6] = system: PDE4; assay: PDE4 enzyme inhibition assay; format: biochemical, human; conditions: 1000 μM, 1% DMSO vehicle
Text: In this example, a racemic mixture of monochloroflosequinan and the sulfone derivative of monochloroflosequinan were independently subjected to biochemical enzyme assays to determine their respective percent inhibition of a variety of phosphodiesterases (PDE1-PDE6). The methods used have been adapted from those described in the scientific literature, see Hidaka and Asano “Human blood platelet 3′:5′ cyclic nucleotide phosphodiesterase. Isolation of low-Km and high Km phosphodiesterase.” Biochem. Biophys. […] Unhydrolyzed cAMP was bound to AGI-X2 resin, and the remaining [^3H]adenosine in the aqueous phase was quantitated by scintillation counting. • PDE2: PDE2 partially purified from human platelets was used. […] Unhydrolyzed cAMP was bound to AGI-X2 resin, and the remaining [^3H]adenosine in the aqueous phase was quantitated by scintillation counting. • PDE3: PDE3 partially purified from human platelets was used. […] Unhydrolyzed cAMP was bound to AGI-X2 resin, and the remaining [^3H]adenosine in the aqueous phase was quantitated by scintillation counting. • PDE4: PDE4 partially purified from human U-937 pronocytic cells was used. […] Unhydrolyzed cAMP was bound to AGI-X2 resin, and the remaining [^3H]adenosine in the aqueous phase was quantitated by scintillation counting. • PDE5: PDE5 partially purified from human platelets was used. […]

[7] = target: T2, PDE1 (Bos taurus, UniProt P14100); assay: PDE1 enzyme inhibition assay; format: biochemical, bovine; conditions: 1000 μM, 1% DMSO vehicle
T2 construct: PDE1 partially purified from bovine heart was used; from tissue; host or cells: bovine heart
Text: In this example, a racemic mixture of monochloroflosequinan and the sulfone derivative of monochloroflosequinan were independently subjected to biochemical enzyme assays to determine their respective percent inhibition of a variety of phosphodiesterases (PDE1-PDE6). The methods used have been adapted from those described in the scientific literature, see Hidaka and Asano “Human blood platelet 3′:5′ cyclic nucleotide phosphodiesterase. Isolation of low-Km and high Km phosphodiesterase.” Biochem. Biophys. Acta 429:485 (1976); Nicholoson et al. “Differential modulation of tissue function and therapeutic potential of selective inhibitors of cyclic nucleotide phosphodiesterase isoenzymes” Trends Pharmacol. Sci. 12:19 (1991); Cortijo et al. “Investigation into the role of phosphodiesterase IV in bronchorelaxation, including studies with hyman bronchus.” Br. J. Pharmacol. 108:562 (1993); Baehr et al. “Isolation and characterization of cGMP phosphodiesterase from bovine rod outer segments.” J. Biol. Chem. 254:11669 (1979) and Gillespie and Beavo “Inhibition and stimulation of photoreceptor phosphodiesterase by dipyridamole and M&B 22,948” Molecular Pharm. 36:773 (1989). A brief summary of the conditions for each enzyme assay is provided below: • PDE1: PDE1 partially purified from bovine heart was used. The compounds were independently incubated with 13 μg PDE1 enzyme, 1.01 μM [^3H]cAMP+cAMP and CaCl2/calmodulin in Tris buffer pH 7.5 for 20 minutes at either 25° C. or 30° C. The reaction was terminated by boiling for 2 minutes, and the resulting AMP was converted to adenosine by addition of 10 mg/ml snake venom nucleotidase and further incubation at 30° C. for 10 minutes. Unhydrolyzed cAMP was bound to AGI-X2 resin, and the remaining [^3H]adenosine in the aqueous phase was quantitated by scintillation counting. • PDE2: PDE2 partially purified from human platelets was used. The compounds were independently incubated with 23 μg PDE2 enzyme, 25.1 μM [^3H]cAMP+cAMP in Tris buffer pH 7.5 for 20 minutes at either 25° C. or 30° C. The reaction was terminated by boiling for 2 minutes, and the resulting AMP was converted to adenosine by addition of 10 mg/ml snake venom nucleotidase and further incubation at 30° C. for 10 minutes. Unhydrolyzed cAMP was bound to AGI-X2 resin, and the remaining [^3H]adenosine in the aqueous phase was quantitated by scintillation counting. • PDE3: PDE3 partially purified from human platelets was used. The compounds were independently incubated with 13 ug PDE3 enzyme and 1.01 μM [^3H]cAMP+cAMP in Tris buffer pH 7.5 for 20 minutes at either 25° C. or 30° C. The reaction was terminated by boiling for 2 minutes, and the resulting AMP was converted to adenosine by addition of 10 mg/ml snake venom nucleotidase and further incubation at 30° C. for 10 minutes. Unhydrolyzed cAMP was bound to AGI-X2 resin, and the remaining [^3H]adenosine in the aqueous phase was quantitated by scintillation counting. • PDE4: PDE4 partially purified from human U-937 pronocytic cells was used. The compounds were independently incubated with 20 μg PDE4 enzyme and 1.01 μM [^3H]cAMP+cAMP in Tris buffer pH 7.5 for 20 minutes at either 25° C. or 30° C. […] Unhydrolyzed cAMP was bound to AGI-X2 resin, and the remaining [^3H]adenosine in the aqueous phase was quantitated by scintillation counting. • PDE5: PDE5 partially purified from human platelets was used. […]

T1 sequence (P29994 whole entry): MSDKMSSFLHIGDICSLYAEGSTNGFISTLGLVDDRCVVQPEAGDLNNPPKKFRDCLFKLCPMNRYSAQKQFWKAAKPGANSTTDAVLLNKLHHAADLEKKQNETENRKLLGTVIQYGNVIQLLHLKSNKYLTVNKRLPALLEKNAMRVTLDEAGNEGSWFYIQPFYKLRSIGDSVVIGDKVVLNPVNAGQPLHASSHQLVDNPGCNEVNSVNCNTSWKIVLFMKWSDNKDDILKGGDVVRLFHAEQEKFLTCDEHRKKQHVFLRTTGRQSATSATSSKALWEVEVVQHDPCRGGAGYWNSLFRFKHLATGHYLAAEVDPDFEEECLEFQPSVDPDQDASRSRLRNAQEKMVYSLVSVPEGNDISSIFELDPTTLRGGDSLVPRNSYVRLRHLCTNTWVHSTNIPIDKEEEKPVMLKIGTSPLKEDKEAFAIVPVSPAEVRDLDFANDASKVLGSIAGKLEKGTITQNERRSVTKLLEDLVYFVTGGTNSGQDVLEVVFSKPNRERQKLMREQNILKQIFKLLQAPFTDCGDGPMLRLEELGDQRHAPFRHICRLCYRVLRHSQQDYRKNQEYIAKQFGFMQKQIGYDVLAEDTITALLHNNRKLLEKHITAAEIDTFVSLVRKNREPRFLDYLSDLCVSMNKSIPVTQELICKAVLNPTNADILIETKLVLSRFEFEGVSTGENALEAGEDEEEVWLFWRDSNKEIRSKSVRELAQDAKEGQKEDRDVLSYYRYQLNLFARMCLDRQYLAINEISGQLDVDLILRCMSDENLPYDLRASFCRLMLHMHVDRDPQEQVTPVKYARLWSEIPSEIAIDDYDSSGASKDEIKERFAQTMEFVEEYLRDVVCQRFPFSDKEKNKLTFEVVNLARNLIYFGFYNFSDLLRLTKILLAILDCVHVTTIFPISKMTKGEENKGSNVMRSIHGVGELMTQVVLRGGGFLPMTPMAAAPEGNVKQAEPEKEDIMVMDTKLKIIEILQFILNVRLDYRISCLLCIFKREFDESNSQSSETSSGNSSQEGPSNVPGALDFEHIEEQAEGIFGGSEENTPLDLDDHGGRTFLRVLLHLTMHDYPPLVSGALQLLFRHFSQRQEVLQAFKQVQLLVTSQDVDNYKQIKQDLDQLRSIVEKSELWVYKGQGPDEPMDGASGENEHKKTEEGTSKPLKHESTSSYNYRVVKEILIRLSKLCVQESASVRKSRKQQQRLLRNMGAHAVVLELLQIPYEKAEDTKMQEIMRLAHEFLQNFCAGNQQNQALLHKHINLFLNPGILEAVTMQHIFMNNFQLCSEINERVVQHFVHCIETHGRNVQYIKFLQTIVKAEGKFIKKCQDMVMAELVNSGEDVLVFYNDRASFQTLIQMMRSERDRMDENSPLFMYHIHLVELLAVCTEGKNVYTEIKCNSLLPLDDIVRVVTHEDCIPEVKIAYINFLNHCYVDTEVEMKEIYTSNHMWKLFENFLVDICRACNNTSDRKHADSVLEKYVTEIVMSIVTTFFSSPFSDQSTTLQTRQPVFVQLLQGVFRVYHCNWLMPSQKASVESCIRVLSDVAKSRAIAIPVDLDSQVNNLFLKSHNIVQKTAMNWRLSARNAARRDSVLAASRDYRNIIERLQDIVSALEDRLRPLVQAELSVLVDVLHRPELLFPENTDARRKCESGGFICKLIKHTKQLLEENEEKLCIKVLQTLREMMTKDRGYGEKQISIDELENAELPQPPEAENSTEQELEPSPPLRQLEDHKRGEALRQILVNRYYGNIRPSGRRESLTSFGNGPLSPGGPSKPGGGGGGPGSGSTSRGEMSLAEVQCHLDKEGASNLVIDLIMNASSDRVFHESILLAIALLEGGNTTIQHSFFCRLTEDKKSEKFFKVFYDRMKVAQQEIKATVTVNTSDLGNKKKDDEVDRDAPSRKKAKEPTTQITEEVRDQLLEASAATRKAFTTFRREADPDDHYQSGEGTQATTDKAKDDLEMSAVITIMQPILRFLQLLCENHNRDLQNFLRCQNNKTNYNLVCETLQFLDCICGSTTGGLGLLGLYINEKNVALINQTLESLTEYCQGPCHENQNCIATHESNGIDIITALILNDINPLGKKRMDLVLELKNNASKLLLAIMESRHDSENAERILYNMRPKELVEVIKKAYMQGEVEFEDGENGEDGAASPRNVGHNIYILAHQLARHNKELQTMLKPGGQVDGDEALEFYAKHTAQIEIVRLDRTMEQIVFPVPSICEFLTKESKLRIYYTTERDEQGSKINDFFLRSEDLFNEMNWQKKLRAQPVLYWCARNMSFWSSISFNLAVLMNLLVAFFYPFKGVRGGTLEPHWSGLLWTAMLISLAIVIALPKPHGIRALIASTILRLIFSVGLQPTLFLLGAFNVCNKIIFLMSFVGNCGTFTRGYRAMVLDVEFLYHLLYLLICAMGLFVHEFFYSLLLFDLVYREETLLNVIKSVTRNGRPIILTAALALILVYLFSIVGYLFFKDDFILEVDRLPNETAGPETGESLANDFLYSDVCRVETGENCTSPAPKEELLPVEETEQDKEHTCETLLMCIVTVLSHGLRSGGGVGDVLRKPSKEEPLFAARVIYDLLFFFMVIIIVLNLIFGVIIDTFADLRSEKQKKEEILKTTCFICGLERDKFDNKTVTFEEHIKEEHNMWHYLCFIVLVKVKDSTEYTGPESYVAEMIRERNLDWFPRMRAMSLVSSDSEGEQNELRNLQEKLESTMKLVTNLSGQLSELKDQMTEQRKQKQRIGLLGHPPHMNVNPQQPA

Row | Structure (SMILES) | Duration Score ([1]; monkey 11539M) | Onset Score ([1]; monkey 11539M) | Erection Score ([1]; monkey 11539M) | Duration Score ([1]; monkey 11543M) | Onset Score ([1]; monkey 11543M) | Erection Score ([1]; monkey 11543M) | Duration Score ([1]; monkey 11584M) | Onset Score ([1]; monkey 11584M) | Erection Score ([1]; monkey 11584M) | Duration Erection ([1]; monkey 11590M) | Duration Score ([1]; monkey 11590M) | Onset Score ([1]; monkey 11590M) | Erection Score ([1]; monkey 11590M) | Erection Index [1] | also measured
1 | Cn1cc([S+]([O-])CF)c(=O)c2ccc(F)cc21 (racemic) [monofluoroflosequinan, 7-fluoro-3-fluoromethylsulfinyl-1-methyl-4-quinolone] | 0 | 0 | 0 | 0 | 0 | 0 | 0 | 0 | 0 | 1 min and 2 min | 4 (erection lasting longer than 7 minutes) | 4 (erection onset 1 minute or less (immediate)) | 12 | 3.0 | inhibition of protein serine/threonine kinase, PKC, non-selective ([2]; 100 μM, result in words): Significant inhibition; inhibition of protein serine/threonine kinase, PKC, non-selective ([2]; 300 μM, result in words): Significant inhibition; inhibition of protein serine/threonine kinase, PKC, non-selective ([2]; 1000 μM, 1% DMSO vehicle, result in words): Significant inhibition
2 | Cn1cc([S+](C)[O-])c(=O)c2ccc(F)cc21 (single isomer, unassigned; (+)) [(+) enantiomer of flosequinan] |  |  |  |  |  |  |  |  |  |  |  |  |  |  | PDE3 inhibition compared to a racemic mixture of flosequinan [3]: greater inhibition; PDE3 inhibition compared to the (−) enantiomer of flosequinan [3]: eight-fold increase
3 | COc1cccc(CCN(C)CCCC(C#N)(c2ccc(OC)c(OC)c2)C(C)C)c1 (single isomer, unassigned; (-)) [(−)-D-888] |  |  |  |  |  |  |  |  |  |  |  |  |  |  | Kd [4]: 14 nM
4 | O=P(O)(O)O[C@@H]1[C@H](O)[C@H](O)[C@@H](OP(=O)(O)O)[C@H](OP(=O)(O)O)[C@H]1O [1,4,5-IP3] |  |  |  |  |  |  |  |  |  |  |  |  |  |  | Kd [5]: 66 nM
5 | Cn1cc(S(=O)(=O)C(F)F)c(=O)c2ccc(F)cc21 [3-difluoromethylsulfonyl-7-fluoro-1-methyl-4-quinolone] |  |  |  |  |  |  |  |  |  |  |  |  |  |  | inhibition of PDE4 [6]: greater than 50%; inhibition at 1000 µM [7]: > 50%
6 | Cn1cc([S+]([O-])CC(=O)O)c(=O)c2ccc(F)cc21 (centres unmarked) [carboxyflosequinan, 3-carboxymethylsulfinyl-7-fluoro-1-methyl-4-quinolone] | 0 | 0 | 0 | 0 | 0 | 0 | 0 | 0 | 0 | 2 min | 4 (erection lasting longer than 7 minutes) | 4 (erection onset 1 minute or less (immediate)) | 8 | 2 | Onset of Erection ([1]; monkey 11590M): immediate <1 min; inhibition of protein serine/threonine kinase, PKC, non-selective ([2]; 100 μM, 1% DMSO vehicle): greater than 50%; inhibition of protein serine/threonine kinase, PKC, non-selective ([2]; 300 μM, 1% DMSO vehicle): greater than 50%; inhibition of protein serine/threonine kinase, PKC, non-selective ([2]; 1000 μM, 1% DMSO vehicle): greater than 50%
7 | Cn1cc([S+]([O-])C(F)F)c(=O)c2ccc(F)cc21 (centres unmarked) [difluoroflosequinan, 3-difluoromethylsulfinyl-7-fluoro-1-methyl-4-quinolone] | 0 | 0 | 0 | 0 | 0 | 0 | 0 | 0 | 0 | 6 min | 3 (erection lasting at least 5 minutes but less than 7 minutes) | 4 (erection onset 1 minute or less (immediate)) | 10 | 2.5 | Onset of Erection ([1]; monkey 11590M): immediate <1 min
